{"source": "paper PMC3795025", "about": "“A Target-Disease Network Model of Second-Generation BCR-ABL Inhibitor Action in Ph+ ALL” (PLoS ONE, 2013)", "biological_target": "LYN (Homo sapiens, UniProt P07948)", "sequence (P07948 2-512)": "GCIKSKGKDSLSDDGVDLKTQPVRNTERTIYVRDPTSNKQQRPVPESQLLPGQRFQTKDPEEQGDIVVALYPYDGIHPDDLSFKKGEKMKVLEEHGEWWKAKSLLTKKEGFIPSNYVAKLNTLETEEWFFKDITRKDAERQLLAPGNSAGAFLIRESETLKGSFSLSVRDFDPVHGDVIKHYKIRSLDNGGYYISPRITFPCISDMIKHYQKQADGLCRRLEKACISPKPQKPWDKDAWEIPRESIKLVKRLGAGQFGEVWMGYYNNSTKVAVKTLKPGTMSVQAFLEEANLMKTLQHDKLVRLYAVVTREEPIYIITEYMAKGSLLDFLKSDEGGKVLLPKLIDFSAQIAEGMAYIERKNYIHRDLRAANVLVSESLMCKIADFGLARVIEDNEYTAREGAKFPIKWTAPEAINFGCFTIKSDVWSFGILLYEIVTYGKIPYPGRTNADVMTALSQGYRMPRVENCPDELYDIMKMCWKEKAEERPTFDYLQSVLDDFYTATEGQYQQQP", "experiment": "chemical proteomics pulldown from cell lysate (c-bafetinib beads, competition with […] free drug)", "type": "cell-based", "data": [{"molecule": "Cc1ccc(NC(=O)c2ccc(CN3CC[C@H](N(C)C)C3)c(C(F)(F)F)c2)cc1Nc1nccc(-c2cncnc2)n1", "note": "[bafetinib]", "values": [{"measurement": "chemical proteomics pulldown from cell lysate (c-bafetinib beads, competition wi)", "value": "LYN and BTK have been identified with all four TKI in the present chemical proteomics screen"}]}]}
